From BindingDB's records for doi:10.1021/jm950720u (Tohoku College of Pharmacy, 1996) come the findings set out here.

In the test the target is T1, Aromatase (Homo sapiens, UniProt P11511).
T1 sequence (P11511 whole entry): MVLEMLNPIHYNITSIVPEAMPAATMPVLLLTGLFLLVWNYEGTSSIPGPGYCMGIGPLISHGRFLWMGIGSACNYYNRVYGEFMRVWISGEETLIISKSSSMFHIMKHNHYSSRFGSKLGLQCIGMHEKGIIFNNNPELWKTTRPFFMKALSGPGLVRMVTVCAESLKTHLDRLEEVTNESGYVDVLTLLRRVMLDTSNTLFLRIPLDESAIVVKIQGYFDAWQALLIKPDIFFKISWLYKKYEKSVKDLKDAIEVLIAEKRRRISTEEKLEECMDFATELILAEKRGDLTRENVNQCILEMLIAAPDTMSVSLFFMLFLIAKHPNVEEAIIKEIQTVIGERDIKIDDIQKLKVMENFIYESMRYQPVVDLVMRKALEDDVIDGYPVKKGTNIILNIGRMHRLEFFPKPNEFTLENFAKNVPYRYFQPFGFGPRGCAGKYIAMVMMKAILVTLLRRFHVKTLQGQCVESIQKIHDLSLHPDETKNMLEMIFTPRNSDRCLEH
Nature of the test: Aromatase Assay. The settings on record: pH 7.5; 37 °C. The procedure:
The enzyme activity was assayed by measuring the 3H-labeled H2O formed from [1beta-3H] Androstenedione during aromatization. After incubation, the reaction was terminated by CHCl3 extraction and centrifugation. Aliquots of the water phase were assayed for the presence of 3H2O by counting using a liquid scintillation spectrometer.

Compound `C[C@]12CCC(=O)C=C1CCC1C2CC[C@]2(C)C(=O)CCC12` (stereo partly drawn) [[1beta-3H] androstenedione] returned an IC50 of 300 nM and a Ki of 20 nM.
